Data on 5 compounds can be found in US7390796B2, “Fatty acid modified forms of glucocorticoids” (Sepracor Inc., priority 2002, dated 2008).

In experiment [1] the test system is WI-38 cells. Description: IC50 for inhibition of IL-1β-stimulated PGE2 production in WI-38 cells. The class given is cell-based, human. Particulars: PGE2 in supernatant, IL-1β stimulation, 24 hours, EIA. The procedure: Nominal 5 mM solutions of the budesonide fatty acid esters were made in DMSO by adding the following amounts of compound and DMSO: docosahexaenoic acid ester of budesonide 7.5 mg in 2 ml DMSO, docosapentaenoic acid ester of budesonide 32.9 mg in 9.1 ml DMSO and eicosapentaenoic acid ester of budesonide 20.3 mg in 5.8 ml DMSO. A 5 mM solution of budesonide was made by dissolving 4.5 mg of budesonide (Sigma Chemical Company product number B 7777) in 2.1 ml DMSO.
(§1) The WI-38 human lung fibroblast line was obtained from the ATCC (catalog number 75-CCL) and maintained in Basel Medium Eagle with Earle's salts (GibcoBRL product number 21010-046) supplemented with 2 mM glutamine and 10% fetal calf serum at 37° C. in a 7% CO2 (balance air), humidified atmosphere. One week before experiments were done, the WI-38 cells were seeded into 48-well tissue culture dishes and maintained in media containing 10% fetal calf serum. The cells were used when confluent. The day before the experiment the cells were fed fresh media containing 10% fetal calf serum (0.25 ml per well). One the day of the experiment the media was removed from the cells and 0.25 ml of media containing 5% fetal calf serum added.
To determine the IC50 values for the compounds, 1 to 1000 dilutions were made of the 5 mM stock solutions in DMSO to give 5 uM solutions. These solutions were serially diluted 1:2 in DMSO to give a series of 12 dilutions ranging from 5 uM to 2.4 nM. 0.0025 ml aliquots of the 12 dilutions were added to wells of the WI-38 cells to give final compound concentrations ranging from 50 nM to 0.024 nM. The cells were stimulated by addition of 0.001 ml of 0.025 ug/ml recombinant human Interleukin-1β (IL-1β-Calbiochem catalog number 407615) in 0.1% bovine serum albumin in phosphate buffered saline. The cells were incubated for 24 hours and the supernatants harvested. The level of PGE2 in the supernatants was assayed using a commercial Enzyme Immuno Assay (EIA) kit (Cayman Chemical catalog number 514010) after diluting 1:10 in EIA buffer according to the manufacturer's directions. The data from these experiments was fit to a 4 parameter logistic function using the IC50 routine in the Grafit 4 program (Erithecus software).

The subject of the next experiment is RAW 264.7 cells. Description: Wash-out (duration of action) experiment, PGE2 production in LPS-stimulated RAW 264.7 cells. It counts as cell-based, rat. Particulars: 2 hours at 50 times the IC50, washed 5 times, E. coli LPS stimulation, 24 hours. Here is the method: The […] cell line RAW 264.7 was obtained from the ATCC (catalog number 71-TIB) and maintained in Dulbecco's Modified Eagle Medium (GibcoBRL product number 11960-044) supplemented with 2 mM glutamine, 1 mM sodium pyruvate and 10% fetal calf serum at 37° C. in a 10% CO2 (balance air), humidified atmosphere. One week before experiments were done, the WI-38 cells were seeded into 48-well tissue culture dishes and maintained in media containing 10% fetal calf serum. The cells were used when confluent. The day before the experiment the cells were fed fresh media containing 10% fetal calf serum (0.25 ml per well). One the day of the experiment the media was removed from the cells and 0.25 ml of media containing 5% fetal calf serum added.
(§2) To test for duration of action, a wash-out experiment was performed as follows. Confluent cells in 48-well tissue culture dishes were treated with concentrations of the above compounds that were 50 times the IC50 values as determined above for 2 hours. The media was removed and the wells washed 5 times with 0.25 ml of media containing 5% fetal calf serum. 0.25 ml of media containing 5% fetal calf serum was then added. The WI-38 cells were stimulated by addition of 0.001 ml of 0.025 ug/ml recombinant human Interleukin-1β (Calbiochem catalog number 407615) in 0.1% bovine serum albumin in phosphate buffered saline. The RAW 264.7 cells were stimulated by addition of 0.001 ml of 0.5 ug/ml E. coli 0127:B8 lipopolysaccharide (LPS-Sigma catalog number L-4516) in 0.1% bovine serum albumin in phosphate buffered saline. The cells were incubated for 24 hours and the supernatants harvested. The level of PGE2 in the supernatants was assayed using a commercial Enzyme Immuno Assay (EIA) kit (Cayman Chemical catalog number 514010) after diluting 1:10 in EIA buffer according to the manufacturer's directions. Eight wells were used for each concentration and the results from these eight wells were averaged.

In experiment [2] the test system is WI-38 cells. Description: Wash-out (duration of action) experiment, PGE2 production in IL-1β-stimulated WI-38 cells. The class given is cell-based, human. Conditions: 2 hours at 50 times the IC50, washed 5 times, IL-1β stimulation, 24 hours. The procedure: as §1, §2
In a further experiment the test system is paw edema. The experiment can be described thus: Rat paw edema model. It counts as in vivo. The procedure:
Putative anti-inflammatory agents may also be tested in vivo in a rat paw edema model [Hirschelmann, R. and Bekemeier, H., Int J Tissue React 6, 471-475 (1984)], which persons of skill in the art accept as predictive of efficacy in treating asthma and rhinitis in humans. The phytanic acid ester of budesonide was tested in this model.

`CCC=CCC=CCC=CCC=CCC=CCC=CCCC(=O)OCC(=O)C12OC(CCC)OC1CC1C3CCC4=CC(=O)C=CC4(C)C3C(O)CC12C` (stereo not shown) [Docosahexaenoic acid ester of budesonide, docosahexaenoic acid ester of budesonide]: the IC50 in the experiment on WI-38 cells [1] came to 1.1 nM. Besides, the PGE2 production came to 892 pg/mL with RAW 264.7 cells and 2075 pg/mL in the experiment on WI-38 cells [2].

For `CCC=CCC=CCC=CCC=CCC=CCCCC(=O)OCC(=O)C12OC(CCC)OC1CC1C3CCC4=CC(=O)C=CC4(C)C3C(O)CC12C` (stereo not shown) [eicosapentaenoic acid ester of budesonide], half-maximal inhibition in the experiment with WI-38 cells [1] (IC50) was put at 1.3 nM. Besides, the PGE2 production in the experiment with RAW 264.7 cells was found to be 576 pg/mL; in the experiment on WI-38 cells [2], 806 pg/mL.

As to `CCC=CCC=CCC=CCC=CCC=CCCCCCC(=O)OCC(=O)C12OC(CCC)OC1CC1C3CCC4=CC(=O)C=CC4(C)C3C(O)CC12C` (stereo not shown) [docosapentaenoic acid ester of budesonide], half-maximal inhibition in the experiment on WI-38 cells [1] (IC50) was put at 9 nM. Further, the PGE2 production was found to be 622 pg/mL in the experiment on RAW 264.7 cells and 200 pg/mL in the experiment with WI-38 cells [2].

The compound `CCCC1O[C@@H]2C[C@H]3[C@@H]4CCC5=CC(=O)C=C[C@]5(C)[C@H]4[C@@H](O)C[C@]3(C)[C@]2(C(=O)CO)O1` (stereo partly shown) [Budesonide, budesonide, reference compound] gave an IC50 in the experiment on WI-38 cells [1] (Homo sapiens, WI-38) of 0.2 nM. Moreover, the results for the PGE2 production in the experiment on RAW 264.7 cells and in the experiment on WI-38 cells [2] were 1339 pg/mL and 2688 pg/mL, respectively. Further, the “percent reduction in paw volume” value in the experiment with paw edema (dose 0.001 μg/paw, 1.5 hours) worked out at 0%; in the experiment on paw edema (dose 0.001 μg/paw, 3 hours) it was 20%; in the experiment with paw edema (dose 0.001 μg/paw, 4.5 hours), 15%; in the experiment with paw edema (dose 0.001 μg/paw, 24 hours), 4%; in the experiment with paw edema (dose 0.001 μg/paw, 48 hours) it was 3%; in the experiment on paw edema (dose 0.001 μg/paw, 72 hours), 0%. For the same compound, the “percent reduction in paw volume” value with paw edema (dose 0.01 μg/paw, 1.5 hours) stood at 0%; in the experiment with paw edema (dose 0.01 μg/paw, 3 hours), 18%; with paw edema (dose 0.01 μg/paw, 4.5 hours), 0%; in the experiment on paw edema (dose 0.01 μg/paw, 24 hours), 11%; in the experiment with paw edema (dose 0.01 μg/paw, 48 hours) it was 0%; in the experiment on paw edema (dose 0.01 μg/paw, 72 hours), 3%. For the same compound, the “percent reduction in paw volume” value with paw edema (dose 0.1 μg/paw, 1.5 hours) was found to be 14%; in the experiment with paw edema (dose 0.1 μg/paw, 3 hours), 5%; with paw edema (dose 0.1 μg/paw, 4.5 hours), 0%; with paw edema (dose 0.1 μg/paw, 24 hours), 0%; in the experiment on paw edema (dose 0.1 μg/paw, 48 hours), 0%; in the experiment on paw edema (dose 0.1 μg/paw, 72 hours), 0%. Also, the “percent reduction in paw volume” value is reported as 36% with paw edema (dose 1 μg/paw, 1.5 hours); 45% with paw edema (dose 1 μg/paw, 3 hours); 32% in the experiment on paw edema (dose 1 μg/paw, 4.5 hours); 44% in the experiment on paw edema (dose 1 μg/paw, 24 hours); 17% with paw edema (dose 1 μg/paw, 48 hours); 10% in the experiment with paw edema (dose 1 μg/paw, 72 hours). Moreover, the “percent reduction in paw volume” value is given as 11% in the experiment on paw edema (dose 10 μg/paw, 1.5 hours); 33% in the experiment with paw edema (dose 10 μg/paw, 3 hours); 34% with paw edema (dose 10 μg/paw, 4.5 hours); 70% in the experiment with paw edema (dose 10 μg/paw, 24 hours); 38% in the experiment on paw edema (dose 10 μg/paw, 48 hours); 6% with paw edema (dose 10 μg/paw, 72 hours).

For the compound `CCCC1OC2CC3C4CCC5=CC(=O)C=CC5(C)C4C(O)CC3(C)C2(C(=O)COC(=O)CC(C)CCCC(C)CCCC(C)CCCC(C)C)O1` (stereo not shown) [Phytanic acid ester of Budesonide, phytanic acid ester of budesonide], the “percent reduction in paw volume” value with paw edema (dose 0.0017 μg/paw, 1.5 hours) is listed as 0%; with paw edema (dose 0.0017 μg/paw, 3 hours) it was 10%; in the experiment on paw edema (dose 0.0017 μg/paw, 4.5 hours), 12%; with paw edema (dose 0.0017 μg/paw, 24 hours) it was 4%; in the experiment with paw edema (dose 0.0017 μg/paw, 48 hours), 7%; with paw edema (dose 0.0017 μg/paw, 72 hours), 3%. Also, the “percent reduction in paw volume” value in the experiment with paw edema (dose 0.017 μg/paw, 1.5 hours) is listed as 0%; in the experiment on paw edema (dose 0.017 μg/paw, 3 hours), 0%; in the experiment on paw edema (dose 0.017 μg/paw, 4.5 hours) it was 0%; with paw edema (dose 0.017 μg/paw, 24 hours), 0%; in the experiment on paw edema (dose 0.017 μg/paw, 48 hours), 0%; in the experiment on paw edema (dose 0.017 μg/paw, 72 hours) it was 6%. For the same compound, the “percent reduction in paw volume” value is 0% in the experiment on paw edema (dose 0.17 μg/paw, 1.5 hours); 0% in the experiment with paw edema (dose 0.17 μg/paw, 3 hours); 0% with paw edema (dose 0.17 μg/paw, 4.5 hours); 0% in the experiment on paw edema (dose 0.17 μg/paw, 24 hours); 0% in the experiment on paw edema (dose 0.17 μg/paw, 48 hours); 0% in the experiment with paw edema (dose 0.17 μg/paw, 72 hours). Besides, the “percent reduction in paw volume” value is 18% in the experiment with paw edema (dose 1.7 μg/paw, 1.5 hours); 15% in the experiment with paw edema (dose 1.7 μg/paw, 3 hours); 2% in the experiment on paw edema (dose 1.7 μg/paw, 4.5 hours); 30% in the experiment on paw edema (dose 1.7 μg/paw, 24 hours); 17% with paw edema (dose 1.7 μg/paw, 48 hours); 16% with paw edema (dose 1.7 μg/paw, 72 hours). Moreover, the “percent reduction in paw volume” value is 11% in the experiment with paw edema (dose 17 μg/paw, 1.5 hours); 5% in the experiment with paw edema (dose 17 μg/paw, 3 hours); 2% in the experiment with paw edema (dose 17 μg/paw, 4.5 hours); 74% in the experiment on paw edema (dose 17 μg/paw, 24 hours); 79% in the experiment with paw edema (dose 17 μg/paw, 48 hours); 65% in the experiment on paw edema (dose 17 μg/paw, 72 hours). The duration of effect entry in the experiment on paw edema (rat paw edema model, summary in words) is “greatly extended duration of effect”.

What is called IC50 is the concentration that gives 50% inhibition. A higher IC50 goes with weaker potency.
